What was measured:
[1] = system: Phaeosphaeria nodorum (Synonym: Septoria nodorum); assay: Test on the preventive effect against wheat glume blotch; type: in vivo; conditions: Parastagonospora nodorum, 144 h; test solution A 500 ppm, 5 ml per pot, wheat 1.3-leaf stage, 2 days inoculation chamber then 6 days at 20° C.
Protocol: (§1) Compounds of the present invention were dissolved in a solvent for emulsion (a mixture of Sorpol (registered trademark) 3005XL (manufactured by Toho Chemical Industry Co., Ltd.): N-methylpyrrolidone: Solvesso (registered trademark) 200 (manufactured by ExxonMobil Chemical) in a ratio of 1:5:2) to prepare 20 wt % emulsifiable concentrates. Then, distilled water was added to dilute the emulsifiable concentrates to the prescribed concentration (500 ppm), and the obtained solutions were used in the following the Test Examples 1 to 8. Wheat (varieties: Haruyutaka) was seeded in 90 cm^3 plastic pot, and at 1.3-leaf stage, 5 ml per pot of test solution A of the compounds of the present invention was applied. One day after treatment, a suspension of conidium of Phaeosphaeria nodorum (Synonym: Septoria nodorum) was sprayed to the wheat, and the pot was left in the inoculation chamber at 20° C. under humidity of 100% RH for 2 days. Then, the pot was placed in an air-conditioned greenhouse (20° C.) for 6 days. The proportion of the formed lesion in the inoculated leaves were measured to calculate the control value in accordance with the same formula as in the Test Example 1. The test was carried out in duplicate.

Botrytis cinerea [2] = assay: Test on the preventive effect against cucumber gray mold (spore inoculation); type: in vivo; conditions: 72 h, test solution A 500 ppm, 5 ml per pot, cucumber cut leaves, conidium inoculation, 3 days at 20° C.
Protocol: Compounds of the present invention were dissolved in a solvent for emulsion (a mixture of Sorpol (registered trademark) 3005XL (manufactured by Toho Chemical Industry Co., Ltd.): N-methylpyrrolidone: Solvesso (registered trademark) 200 (manufactured by ExxonMobil Chemical) in a ratio of 1:5:2) to prepare 20 wt % emulsifiable concentrates. Then, distilled water was added to dilute the emulsifiable concentrates to the prescribed concentration (500 ppm), and the obtained solutions were used in the following the Test Examples 1 to 8. Cucumber (varieties: Sagami Hanjiro) was seeded in 90 cm^3 plastic pot, and at the cotyledon stage, 5 ml per pot of test solution A of the compounds of the present invention was applied. After drying in air, the treated leaves were cut and transferred in plastic containers. 30 μl of a mixture of a suspension of conidium of Botrytis cinerea and a dissolved PDA medium in a ratio of 1:1 was dropped on each treated leaf and inoculated. After the inoculation, the plastic containers were placed in 20° C. with humid conditions for 3 days, and the proportion of the formed lesion in the inoculated leaves were counted to calculate the control value in accordance with the same formula as in the Test Example 1. The test was carried out in duplicate.

Puccinia recondita = assay: Test on the preventive effect against wheat leaf rust; type: in vivo; conditions: 216 h, test solution A 500 ppm, 5 ml per pot, wheat 1.3-leaf stage, 1 day inoculation chamber then 8 days at 20° C.
Protocol: as §1, with “Norin 61)” for “Haruyutaka)”, “spores” for “conidium”, “Puccinia recondita” for “Phaeosphaeria nodorum (Synonym: Septoria nodorum)”, “1 day. Thereafter,” for “2 days. Then,”, “8” for “6”, “counted” for “measured”

[3] = system: Erysiphe polygoni (synonym: Erysiphe betae); assay: Test on the preventive effect against cucumber powdery mildew; type: in vivo; conditions: 216 h, test solution A 500 ppm, 5 ml per pot sprayed, cucumber cotyledon stage, 9 days after inoculation
Protocol: Compounds of the present invention were dissolved in a solvent for emulsion (a mixture of Sorpol (registered trademark) 3005XL (manufactured by Toho Chemical Industry Co., Ltd.): N-methylpyrrolidone: Solvesso (registered trademark) 200 (manufactured by ExxonMobil Chemical) in a ratio of 1:5:2) to prepare 20 wt % emulsifiable concentrates. Then, distilled water was added to dilute the emulsifiable concentrates to the prescribed concentration (500 ppm), and the obtained solutions were used in the following the Test Examples 1 to 8. Cucumber (varieties: Sagami Hanjiro) was seeded in 90 cm^3 plastic pot, and at the cotyledon stage, 5 ml per pot of test solution A of the compounds of the present invention was sprayed. After drying in air, the pot was placed in an air-conditioned greenhouse (20° C.), and a suspension of conidium of Erysiphe polygoni (synonym: Erysiphe betae) was sprayed. After the pot were replaced at the same temperature for 9 days, the proportion of the formed lesion in the inoculated leaves were counted to calculate the control value in accordance with the following formula. The test was carried out in duplicate. Control value=[1−(lesion area ratio in treated plot/lesion are a ratio in non-treated plot)]×100

[4] = system: Blumeria graminis f. sp. tritici; assay: Test on the preventive effect against wheat powdery mildew; type: in vivo; conditions: 168 h, test solution A 500 ppm, 5 ml per pot, wheat 1.3-leaf stage, 7 days after inoculation
Protocol: Compounds of the present invention were dissolved in a solvent for emulsion (a mixture of Sorpol (registered trademark) 3005XL (manufactured by Toho Chemical Industry Co., Ltd.): N-methylpyrrolidone: Solvesso (registered trademark) 200 (manufactured by ExxonMobil Chemical) in a ratio of 1:5:2) to prepare 20 wt % emulsifiable concentrates. Then, distilled water was added to dilute the emulsifiable concentrates to the prescribed concentration (500 ppm), and the obtained solutions were used in the following the Test Examples 1 to 8. Wheat (varieties: Norin 61) was seeded in 90 cm^3 plastic pot, and at the 1.3-leaf stage, 5 ml per pot of test solution A of the compounds of the present invention were applied. One day after treatment, the pot was placed in an air-conditioned greenhouse (20° C.), and conidium of Blumeria graminis f. sp. tritici was inoculated to the wheat. 7 days after, the proportion of the formed lesion in the inoculated leaves were measured to calculate the control value in accordance with the same formula as in the Test Example 1. The test was carried out in duplicate.

[5] = system: Colletotrichum lagenarium (Synonym: Colletotrichum orbiculare); assay: Test on the preventive effect against cucumber anthracnose; type: in vivo; conditions: 168 h, 100 ppm solution (symbol *), 5 ml per pot sprayed, 2 days inoculation chamber then 7 days at 23° C.
[6] = system: Colletotrichum lagenarium (Synonym: Colletotrichum orbiculare); assay: as above; type: in vivo; conditions: 168 h, test solution A 500 ppm, 5 ml per pot sprayed, 2 days inoculation chamber then 7 days at 23° C.
Protocol: Compounds of the present invention were dissolved in a solvent for emulsion (a mixture of Sorpol (registered trademark) 3005XL (manufactured by Toho Chemical Industry Co., Ltd.): N-methylpyrrolidone: Solvesso (registered trademark) 200 (manufactured by ExxonMobil Chemical) in a ratio of 1:5:2) to prepare 20 wt % emulsifiable concentrates. Then, distilled water was added to dilute the emulsifiable concentrates to the prescribed concentration (500 ppm), and the obtained solutions were used in the following the Test Examples 1 to 8. Cucumber (varieties: Sagami Hanjiro) was seeded in 90 cm^3 plastic pot, and at the cotyledon stage, 5 ml per pot of test solution A of the compounds of the present invention was sprayed. One day later, a suspension of conidium of Colletotrichum lagenarium (Synonym: Colletotrichum orbiculare) was sprayed, and the pot was left for 2 days in the inoculation chamber at 25° C. under humidity of 100% RH. Thereafter, the pot was placed in an air-conditioned greenhouse (23° C.) and left at the same temperature for 7 days. Thereafter, the proportion of the formed lesion in the inoculated leaves were measured to calculate the control value in accordance with the same formula as in Test Example 1. The test was carried out in duplicate.

Botrytis cinerea [7] = assay: Test on the preventive effect against cucumber gray mold (mycelium inoculation); type: in vivo; conditions: 48 h, test solution A 500 ppm, 5 ml per pot, cucumber cotyledon, agar block inoculation, 2 days at 20° C.
Protocol: Compounds of the present invention were dissolved in a solvent for emulsion (a mixture of Sorpol (registered trademark) 3005XL (manufactured by Toho Chemical Industry Co., Ltd.): N-methylpyrrolidone: Solvesso (registered trademark) 200 (manufactured by ExxonMobil Chemical) in a ratio of 1:5:2) to prepare 20 wt % emulsifiable concentrates. Then, distilled water was added to dilute the emulsifiable concentrates to the prescribed concentration (500 ppm), and the obtained solutions were used in the following the Test Examples 1 to 8. Cucumber (varieties: Sagami Hanjiro) was seeded in 90 cm^3 plastic pot, and at the cotyledon stage, 5 ml per pot of test solution A of the compounds of the present invention was applied. On the next day, the pot was transferred in a plastic container, and an agar blocks (diameter: 5 mm) containing Botrytis cinerea which was preliminarily cultivated in a PDA medium was inoculated on the cotyledon of the cucumber treated with the solution. After the inoculation, the plastic container was covered with a plastic sheet, then placed at 20° C. and humidified for 2 days. Thus the proportion of the formed lesion in the inoculated leaves were measured to calculate the control value in accordance with the same formula as in the Test Example 1. The test was carried out in duplicate.

Asperaillus niger = assay: Test on the antifungal activity against Asperaillus niger; type: cell-based; conditions: 48 h; test solution B 100 ppm, 10 μl per well, 96 well plate, 25° C. dark, 2 days after treatment; read-out: efficacy (flora area ratio relative to non-treated well)
Protocol: Compounds of the present invention were dissolved in dimethyl sulfoxide to prepare 1 wt % solutions. Then, distilled water was added to dilute the solutions to the prescribed concentration (100 ppm), and the obtained solutions were used in the following the Test Examples 9 to 12. 60 μl of a potato dextrose 1% agar medium was added to each well of a 96 well plate, and 30 μl of sterilized water containing spores of Asperaillus niger (10 spores/3 μl) was added to each well. Further, 10 μl per well of test solution B of the compounds of the present invention was added, and the plate was left at rest at 25° C. under dark conditions. 2 days after treatment, the flora area ratio (%) was determined to calculate the efficacy (%) relative to the non-treated well in accordance with the following formula. Efficacy (%)=[1−(flora area ratio in treated plot/flora area ratio in non-treated well)]×100

Sclerotinia sclerotiorum = assay: Test on the preventive effect against cucumber stem rot; type: in vivo; conditions: 48 h, test solution A 500 ppm, 5 ml per pot, agar block inoculation, 2 days at 20° C.
Protocol: Compounds of the present invention were dissolved in a solvent for emulsion (a mixture of Sorpol (registered trademark) 3005XL (manufactured by Toho Chemical Industry Co., Ltd.): N-methylpyrrolidone: Solvesso (registered trademark) 200 (manufactured by ExxonMobil Chemical) in a ratio of 1:5:2) to prepare 20 wt % emulsifiable concentrates. Then, distilled water was added to dilute the emulsifiable concentrates to the prescribed concentration (500 ppm), and the obtained solutions were used in the following the Test Examples 1 to 8. Cucumber (varieties: Sagami Hanjiro) was seeded in 90 cm^3 plastic pot, and at the cotyledon stage, 5 ml per pot of test solution A of the compounds of the present invention was applied. After drying in air, the pot was transferred in a plastic container, and an agar blocks (diameter: 5 mm) containing Sclerotinia sclerotiorum which was preliminarily cultivated in a PDA medium was inoculated to the seed leaves of the cucumber treated with the solution. After the inoculation, the plastic container was covered with a plastic sheet, and placed at 20° C. and humidified for 2 days, thus the proportion of the formed lesion in the inoculated leaves were measured to calculate the control value in accordance with the same formula as in the Test Example 1. The test was carried out in duplicate.

Row | melting point [°C] | SMILES | pest or weed control at 500 µg/mL [1] [%] | pest or weed control at 500 µg/mL (Botrytis cinerea [2]) [%] | other results
1 | 42 to 44 | N#CC(C#N)(CNC(=O)c1ccccc1C(F)(F)F)c1ncc(C#CC2CC2)cc1Cl [1-023, N-[2-[3-chloro-5-(cyclopropylethynyl)pyridin-2-yl]-2,2-dicyanoethyl]-2-(trifluoromethyl)benzamide] | ≥ 70 | – | –
2 | 110 to 112 | Cn1cc(C(=O)N(C(=O)OC(C)(C)C)C2CC2c2ncc(C#CC3CC3)cc2Cl)c(C(F)F)n1 (stereo not shown) [12-002, tert-butyl N-[2-[3-chloro-5-(cyclopropylethynyl)pyridin-2-yl]cyclopropyl]-N-[3-difluoromethyl-1-methyl-1H-pyrazole-4-carbonyl]carbamate] | – | ≥ 70 | –
3 | – | COC(c1ncc(C#CC2CC2)cc1Cl)C(C)NC(=O)c1sc(C)nc1C(F)F (stereo not shown) [9-006b] | – | – | pest or weed control at 500 µg/mL (Puccinia recondita): ≥ 70%
4 | 87 to 88 | CCOC(=O)C(CNC(=O)c1cn(C)nc1C(F)F)(C(=O)OCC)c1ncc(C#CC2CC2)cc1Cl [8-023, 2-[3-chloro-5-(cyclopropylethynyl)pyridin-2-yl]-2-[(3-difluoromethyl-1-methyl-1H-pyrazole-4-carboxamide)methyl]malonic acid diethyl ester] | ≥ 70 | ≥ 70 | pest or weed control at 500 µg/mL [3]: ≥ 70%; pest or weed control at 500 µg/mL [4]: ≥ 70%
5 | – | CC(Cc1ncc(C#CCO)cc1Cl)NC(=O)c1cn(C)nc1C(F)F (stereo not shown) [8-025] | – | – | pest or weed control at 100 ppm [5]: ≥ 70%
6 | 72 to 74 | CC(NC(=O)c1cccnc1C(F)F)C(SCC(F)(F)F)c1ncc(C#CC2CC2)cc1Cl (stereo not shown) [3-033a] | ≥ 70 | ≥ 70 | pest or weed control at 500 µg/mL [3]: ≥ 70%; pest or weed control at 500 µg/mL [6]: ≥ 70%
7 | 176 to 178 | Cn1cc(C(=O)NC2CC2c2ncc(C#CC3CC3)cc2Cl)c(C(F)F)n1 (stereo not shown) [8-033, N-[2-[3-chloro-5-(cyclopropylethynyl)pyridin-2-yl]cyclopropyl]-3-difluoromethyl-1-methyl-1H-pyrazole-4-carboxamide] | – | ≥ 70 | pest or weed control at 500 µg/mL (Botrytis cinerea [7]): ≥ 70%; inhibition of growth at 100 µg/mL (Asperaillus niger): ≥ 50%; pest or weed control at 500 µg/mL (Puccinia recondita): ≥ 70%; pest or weed control at 500 µg/mL (Sclerotinia sclerotiorum): ≥ 70%
